Source: US8313779B2, “Evaluation method and screening method for substance having action of activating/suppressing innate immunity, agent and food product for activating/suppressing innate immune mechanism and method for producing the same” (Genome Pharmaceuticals Institute Co., Ltd., priority 2007, dated 2012)

Test system: isolated head muscle specimen of the silkworm larva
Assay: Inhibition of induced muscular contraction in the isolated head muscle specimen of the silkworm larva (pre-injection of test substance, then inducer)
Assay type: in vivo, silkworm (Bombyx mori) larva
Method: The experiment using kainic acid (0.2 mM) in place of peptideglycan was carried out as a control experiment. It has been known that kainic acid is an agonist of a glutamic acid receptor and induces the muscular contraction by strongly binding to a glutamine receptor to excessively stimulate the nerve. It has been already known that the muscular contraction induced by kainic acid is inhibited by L-glutamic acid.
The experiment using kainic acid (0.2 mM) in place of BmPP was carried out as the control experiment.
As the control experiment, 0.9% NaCl in place of the rabbit antiserum against BmPP was injected.

Compound	inhibition of muscular contraction induced by BmPP (L-glutamic acid 40 mM, 0.05 mL pre-injected, then BmPP (FIG. 4))	inhibition of muscular contraction induced by kainic acid (L-glutamic acid 40 mM, 0.05 mL pre-injected, kainic acid 0.2 mM (FIG. 2))	inhibition of muscular contraction induced by peptideglycan (L-glutamic acid 40 mM, 0.05 mL pre-injected, peptideglycan 0.5 mg/mL or 5 mg/mL, 0.05 mL (FIG. 2))	inhibition of muscular contraction induced by β-glucan (L-glutamic acid pre-injected)	inhibition of muscular contraction induced by BmPP (N-acetylcysteine 200 mM, 0.05 mL pre-injected, 0.4 μg/mL BmPP (FIG. 6))	inhibition of muscular contraction induced by kainic acid (N-acetylcysteine 200 mM, 0.05 mL pre-injected, 0.2 mM kainic acid (FIG. 6))	inhibition of muscular contraction induced by air (N-acetylcysteine 200 mM, 0.05 mL pre-injected, 0.05 mL of air (FIG. 6))	inhibition of muscular contraction induced by H2O2 (N-acetylcysteine 200 mM, 0.05 mL pre-injected, 125 mM H2O2 (FIG. 6))	inhibition of muscular contraction induced by peptideglycan (N-acetylcysteine 200 mM, 0.05 mL pre-injected, peptideglycan = autoclaved Staphylococcus aureus (FIG. 6))
N[C@@H](CCC(=O)O)C(=O)O [L-glutamic acid]	not inhibited	inhibited	not inhibited	not inhibited					
CC(=O)N[C@@H](CS)C(=O)O [N-acetylcysteine]					no inhibitory effect	no inhibitory effect	inhibited	inhibited	inhibited
